Experimental data published in US11771737B2, “Treating or preventing adverse liver conditions” (priority 2017, dated 2023).

What was measured:
A20 tumor cells = assay: Tail vein A20 tumor cell injection, liver metastasis; format: in vivo, BALB/c mice; details: A20 tumor-bearing antibiotic (vancomycin)-administered mice, ω-MCA feeding
Source text: Liver metastases were counted three weeks after injection. Cumulative data are shown. n=8, p<0.05, Student's t-test.
FIG. 7B is a dot plot showing liver weight of liver sections in mice that received tail vein injection of A20 tumor cells. n=4, p<0.05, Student's t-test.
(§1) B16-F1 and A20 cells were purchased from ATCC (Manassas, Va., USA). EL4 cells were used as described (Ma et al., J. Leukoc. Biol., 92: 1199-1206 (2012), incorporated by reference herein). 1×10^6 EL4 tumor cells were given by subcutaneous (s.c.) or tail vein injection, 3×10^5 B16-F1 tumor cells were given by intrasplenic injection as described before (Eggert et al., Cancer Cell, 30: 533-547 (2016), incorporated by reference herein), and 1×10^6 A20 tumor cells were given by tail vein injection.
Mice were kept on ABX cocktail and fresh ABX was replaced every other day. Mice were fed with bile acids by oral gavage 48, 24 and 16 hrs prior to sacrifice. For A20 tumor bearing mice, ω-MCA were given 3 times/week. ω-MCA and CDCA were dissolved in corn oil and given at the dose of 6 mg/15 g body weight.
A20 tumor cells were i.v. injected into vancomycin-(Vanco) or H2O-administered BALB/c mice. ω-MCA (5 mg/mouse) was given by oral gavage three times/week. aCD4 antibody (GK1.5) was given i.p. at the dose of 500 μg/mouse weekly to deplete […] cells. FIGS. 30A and 30B show the results after 3 weeks.

EL4 tumor cells = assay: Tail vein EL4 tumor cell injection, liver tumors in wild-type, CXCR6 and CD1d knockout mice; format: in vivo; details: ABX-administered CXCR6−/− mice
Source text: Measurements were taken 3 weeks after injection. Cumulative data are shown. n=10 for Wt-H2O, 7 for Wt-ABX, 4 for CXCR6^−/−-H2O, 5 for CXCR6^−/−-ABX, 5 for CD1d^−/−-H2O, 4 for CD1d^−/−-ABX. p<0.05, two-way ANOVA.
as §1
NKT cells are known to have anti-tumor function and can directly kill CD1d expressing tumors. All three tested tumor models (B16, EL4 and A20) expressed […] at different levels (FIG. 22). To investigate the role of NKT cells in this setting, CD1d knockout and CXCR6 knockout mice were used. CD1d knockout mice completely lack NKT cells, while CXCR6 knockout mice have a selective NKT deficiency in the liver. Loss of hepatic NKT cells in these mice was confirmed (FIG. 23). […]
EL4 tumor cells were injected into ABX-pre-administered CXCR6^−/− mice. ω-MCA was given as described above. Liver surface tumors were counted three weeks after tumor injection.

CXCL16 = CXCL16 mRNA in primary murine LSECs administered bile acids; format: cell-based, mice; details: primary murine LSECs in vitro, 24 hours
Source text: FIG. 28E is a dot plot showing CXCL16 mRNA levels of isolated LSECs administered different bile acids, in accordance with embodiments of the invention. n=5, p<0.05, one-way ANOVA.
FIG. 28F is a dot plot showing CXCL16 mRNA levels of isolated LSECs administered a combination of T-b-MCA with T-w-MCA or ω-MCA. n=5, p<0.05, one-way ANOVA.
Primary mice liver sinusoidal endothelia cells were isolated as previously described (Limmer et al., Nat. Med., 6: 1348-1354 (2000), incorporated by reference herein). Briefly, mice were CO2 euthanized, and then the portal vein was cannulated, and the liver was perfused with 0.05% collagenase in Ca^2+ deprived medium. Liver cells were dissociated, and parenchymal cells were killed by incubation in 0.04% collagenase in Gey's balanced salt solution at 37° C. for 15 minutes. Then density gradient centrifugation was performed using Nycodenz solution at the final solution of 1.089 g/cm^3. Liver sinusoidal endothelial cells (LSEC) were isolated using anti-LSEC microbeads (Miltenyi, Bergisch Gladbach, Germany) according to the manufacturer's instructions. LSECs or the human SK-HEP1 cell line (ATCC, HTB-52) were administered different bile acids for 24 hours. Gene expression was analyzed by real-time PCR. […]

hepatic NKT cells = assay: In vivo bile acids feeding, hepatic NKT cell levels; details: ABX-administered mice, oral gavage 6 mg/15 g body weight at 48, 24 and 16 hrs

C[C@H](CCC(=O)O)[C@H]1CC[C@H]2[C@@H]3[C@@H](O)[C@H](O)[C@@H]4C[C@H](O)CC[C@]4(C)[C@H]3CC[C@]12C [ω-MCA, ω-muricholic acid]
liver tumor growth (A20 tumor cells): reversed the inhibition of liver tumor growth | liver tumor development (EL4 tumor cells): failed to affect | cxcl16 mRNA expression (CXCL16): decreased | hepatic NKT accumulation (hepatic NKT cells): effectively reversed hepatic NKT accumulation
